The results in this text go back to ChEMBL document CHEMBL1155680, “A new bioactive triene aldehyde from the marine sponge Leucetta microraphis” (J Nat Prod, 2000).

This assay has as its system HeLa. The assay can be described thus: Growth inhibition of human HeLa S3 cells at 10 ug/ml after 72 hrs by crystal violet assay. Type of assay: functional, cell-based.

The source made the active and inactive calls. The rule behind the calls is not given here.

As to `CCCCCCCCCC/C=C\C/C=C\CC/C=C(\C)C=O`, the outcome was Active.
